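Dose response: 5 concentrations. Exposure: 48 h. Format: 96-well plates. Endpoint: linear interpolation; highest concentration if not reached. GI50 marks 50% less growth.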 Activity calls are given as the source filed them. Cut-off read from the data, not from the text of the source: active = GI50 up to about 1.1 µM and inactive = higher.
Experiments:
Assay in all cases: growth of human tumour cells (NCI), 48 h
UACC-62 = system: UACC-62
TK-10 = system: TK-10
RPMI-8226 = system: RPMI-8226
COLO 205 = system: COLO 205
SNB-19 = system: SNB-19
SK-MEL-2 = system: SK-MEL-2
SW-620 = system: SW-620
K562 = system: K562
T47D = system: T47D
SK-OV-3 = system: SK-OV-3
HT-29 = system: HT-29
HOP-62 = system: HOP-62
786-0 = system: 786-0
MOLT-4 = system: MOLT-4
OVCAR-8 = system: OVCAR-8
NCI-H226 = system: NCI-H226
ACHN = system: ACHN
Hs-578T = system: Hs-578T
IGROV-1 = system: IGROV-1

Compound	GI50 (UACC-62)	GI50 (TK-10)	GI50 (RPMI-8226)	GI50 (COLO 205)	GI50 (SNB-19)	GI50 (SK-MEL-2)	GI50 (SW-620)	GI50 (K562)	GI50 (T47D)	GI50 (SK-OV-3)	GI50 (HT-29)	GI50 (HOP-62)	GI50 (786-0)	GI50 (MOLT-4)	GI50 (OVCAR-8)	GI50 (NCI-H226)	GI50 (ACHN)	GI50 (Hs-578T)	GI50 (IGROV-1)
C/C=C/C(O)P(=O)(OC)OC (stereo not given)	0.27 µM (active)	0.366 µM (active)	0.162 µM (active)	0.184 µM (active)	0.436 µM (active)	0.324 µM (active)	0.277 µM (active)	0.318 µM (active)	0.334 µM (active)	1.03 µM (active)	0.33 µM (active)	0.628 µM (active)	0.173 µM (active)	0.3 µM (active)	0.451 µM (active)	0.332 µM (active)	0.344 µM (active)	0.213 µM (active)	0.275 µM (active)
CCOC(=O)N1c2ccccc2C(C)=CC(C)C1C (stereo not given)	32.6 µM (inactive)	4.55 µM (inactive)	56.8 µM (inactive)	29.2 µM (inactive)	42.8 µM (inactive)	32.7 µM (inactive)	29.4 µM (inactive)	18.9 µM (inactive)	52.1 µM (inactive)	22.4 µM (inactive)	10.7 µM (inactive)	37.6 µM (inactive)	20.6 µM (inactive)	39.4 µM (inactive)	17.6 µM (inactive)	22.8 µM (inactive)	49.7 µM (inactive)	35.6 µM (inactive)	44 µM (inactive)
O=C1CCC2=C(CCC2)N1CCc1ccc2c(c1)OCO2	65 µM (inactive)	76.9 µM (inactive)	< 0.01 µM (active)	60.3 µM (inactive)	81.7 µM (inactive)	29.9 µM (inactive)	> 100 µM (inactive)	25.7 µM (inactive)	37 µM (inactive)	> 100 µM (inactive)	92 µM (inactive)	94.6 µM (inactive)	> 100 µM (inactive)	15.4 µM (inactive)	> 10 µM (inactive)	20.5 µM (inactive)	77.3 µM (inactive)	49 µM (inactive)	58.7 µM (inactive)
O=C(O)Cc1c(O)ccc2ccccc12	> 100 µM (inactive)	> 100 µM (inactive)	> 100 µM (inactive)	> 100 µM (inactive)	> 100 µM (inactive)	> 100 µM (inactive)	> 100 µM (inactive)	> 100 µM (inactive)	> 100 µM (inactive)	> 100 µM (inactive)	> 100 µM (inactive)	> 100 µM (inactive)	> 100 µM (inactive)	> 100 µM (inactive)	> 100 µM (inactive)	> 100 µM (inactive)	> 100 µM (inactive)	> 100 µM (inactive)	> 100 µM (inactive)
O=c1ssc(Cl)c1Nc1c(Cl)ssc1=O	> 40.7 µM (inactive)	19 µM (inactive)	9.08 µM (inactive)	11.3 µM (inactive)	25.7 µM (inactive)	19.4 µM (inactive)	15.8 µM (inactive)	6.44 µM (inactive)	9.2 µM (inactive)	25.9 µM (inactive)	22.4 µM (inactive)	20.7 µM (inactive)	17.8 µM (inactive)	2.25 µM (inactive)	21.5 µM (inactive)	28.4 µM (inactive)	> 40 µM (inactive)	36.4 µM (inactive)	18.2 µM (inactive)
O=C(O)C(O)C(O)C(O)C(=O)CO (stereo not given)	> 100 µM (inactive)	> 100 µM (inactive)	> 100 µM (inactive)	> 100 µM (inactive)	> 100 µM (inactive)	> 100 µM (inactive)	> 100 µM (inactive)	> 100 µM (inactive)	> 100 µM (inactive)	> 100 µM (inactive)	> 100 µM (inactive)	> 100 µM (inactive)	> 100 µM (inactive)	> 100 µM (inactive)	> 100 µM (inactive)	> 100 µM (inactive)	> 100 µM (inactive)	> 100 µM (inactive)	> 100 µM (inactive)
C[N+]1(CCN=C=NC2CCCCC2)CCOCC1	> 100 µM (inactive)	> 100 µM (inactive)	> 100 µM (inactive)	> 100 µM (inactive)	> 100 µM (inactive)	> 100 µM (inactive)	> 100 µM (inactive)	> 100 µM (inactive)	> 100 µM (inactive)	> 100 µM (inactive)	> 100 µM (inactive)	> 100 µM (inactive)	> 100 µM (inactive)	> 100 µM (inactive)	> 100 µM (inactive)	> 100 µM (inactive)	> 100 µM (inactive)	> 100 µM (inactive)	> 100 µM (inactive)
N#Cc1c(Cl)c2ccccc2n2c1nc1ccccc12	43.5 µM (inactive)	19.4 µM (inactive)	31.3 µM (inactive)	23.1 µM (inactive)	74.6 µM (inactive)	37.3 µM (inactive)	29.1 µM (inactive)	18.9 µM (inactive)	27.2 µM (inactive)	87.9 µM (inactive)	20.3 µM (inactive)	38 µM (inactive)	19.7 µM (inactive)	30.3 µM (inactive)	21.9 µM (inactive)	21.6 µM (inactive)	18 µM (inactive)	17.7 µM (inactive)	13.9 µM (inactive)
O=C1C(N2CCN(CCOCCO)CC2)=C(Cl)C(=O)c2ncccc21	21.5 µM (inactive)	29.4 µM (inactive)	19 µM (inactive)	8.28 µM (inactive)	> 10 µM (inactive)	20.9 µM (inactive)	23 µM (inactive)	3.2 µM (inactive)	2.58 µM (inactive)	> 10 µM (inactive)	22.6 µM (inactive)	> 10 µM (inactive)	21.4 µM (inactive)	2.37 µM (inactive)	18.1 µM (inactive)	> 10 µM (inactive)	19.1 µM (inactive)	> 10 µM (inactive)	16.9 µM (inactive)
O=C(O)C1(Cc2ccccc2)Cc2cc3c(cc2C1)CCC3	> 100 µM (inactive)	> 100 µM (inactive)	58.1 µM (inactive)	> 100 µM (inactive)	> 100 µM (inactive)	82 µM (inactive)	> 100 µM (inactive)	72.9 µM (inactive)	18.3 µM (inactive)	> 100 µM (inactive)	> 100 µM (inactive)	99.3 µM (inactive)	> 100 µM (inactive)	> 100 µM (inactive)	> 100 µM (inactive)	> 100 µM (inactive)	> 100 µM (inactive)	75.2 µM (inactive)	> 100 µM (inactive)
COC(=O)C(=O)c1c2ccccc2n2ccc3c4ccccc4[nH]c3c12	> 10 µM (inactive)	> 10 µM (inactive)	> 10 µM (inactive)	> 10 µM (inactive)	> 10 µM (inactive)	> 10 µM (inactive)	> 10 µM (inactive)	> 10 µM (inactive)	> 10 µM (inactive)	> 10 µM (inactive)	> 10 µM (inactive)	> 10 µM (inactive)	> 10 µM (inactive)	> 10 µM (inactive)	> 10 µM (inactive)	> 10 µM (inactive)	> 10 µM (inactive)	3.07 µM (inactive)	> 10 µM (inactive)
CC(=O)O[C@H]1C(=O)[C@@]2(C)[C@H]([C@H](OC(=O)c3ccoc3)[C@]3(O)C[C@H](OC(=O)[C@H](O)[C@@H](NC(=O)c4ccccc4)c4ccccc4)C(C)=C1C3(C)C)[C@]1(OC(C)=O)CO[C@@H]1C[C@@H]2O	0.053 µM (active)	> 2.99 µM (inactive)	0.00904 µM (active)	0.0515 µM (active)	0.145 µM (active)	0.0448 µM (active)	0.0448 µM (active)	0.0324 µM (active)	0.0461 µM (active)	0.0578 µM (active)	0.0307 µM (active)	0.206 µM (active)	0.38 µM (active)	0.045 µM (active)	0.0798 µM (active)	0.11 µM (active)	2.1 µM (inactive)	0.0249 µM (active)	0.0962 µM (active)
O=C(C#Cc1ccccc1)C1=Cc2ccccc2OC1	1.94 µM (inactive)	1.9 µM (inactive)	2.71 µM (inactive)	1.92 µM (inactive)	15 µM (inactive)	3.94 µM (inactive)	2.22 µM (inactive)	2.61 µM (inactive)	3.26 µM (inactive)	15 µM (inactive)	2.11 µM (inactive)	13.6 µM (inactive)	2.4 µM (inactive)	3.33 µM (inactive)	2.39 µM (inactive)	2.55 µM (inactive)	2.17 µM (inactive)	8.26 µM (inactive)	2.38 µM (inactive)
CO[C@H](C)[C@](O)(C(=O)OCC1=CCN2CC[C@@H](O)[C@H]12)C(C)C	> 100 µM (inactive)	> 100 µM (inactive)	> 100 µM (inactive)	> 100 µM (inactive)	> 100 µM (inactive)	> 100 µM (inactive)	> 100 µM (inactive)	> 100 µM (inactive)	> 100 µM (inactive)	> 100 µM (inactive)	> 100 µM (inactive)	> 100 µM (inactive)	> 100 µM (inactive)	> 100 µM (inactive)	> 100 µM (inactive)	> 100 µM (inactive)	73.3 µM (inactive)	> 100 µM (inactive)	> 100 µM (inactive)
O=C(Nc1ccccc1)N(CCN(Cc1ccccc1)C(=O)Nc1ccccc1)CCN(Nc1ccccc1)C(=O)Nc1ccccc1	> 100 µM (inactive)	> 100 µM (inactive)	> 100 µM (inactive)	> 100 µM (inactive)	> 100 µM (inactive)	> 100 µM (inactive)	> 100 µM (inactive)	> 100 µM (inactive)	> 100 µM (inactive)	> 100 µM (inactive)	> 100 µM (inactive)	> 100 µM (inactive)	> 100 µM (inactive)	> 100 µM (inactive)	> 100 µM (inactive)	> 100 µM (inactive)	> 100 µM (inactive)	> 100 µM (inactive)	> 100 µM (inactive)

Reference: ChEMBL document CHEMBL1201862, “PubChem BioAssay data set” (2004)
